# Test results: patent US8710065B2, “Tricyclic inhibitors of kinases” (AbbVie Inc., priority 2011, dated 2014)
# Target: T1, GST-tagged-Wee1 kinase (Homo sapiens, UniProt P30291)
# T1 construct: purchased Carnabio (Carna Biosciences) 05-177
# Assay: Wee1 time-resolved fluorescence equilibrium binding assay (displacement of Oregon Green-labeled ATP-competitive kinase probe)
# Settings: read-out: Wee-1 inhibition (Ki)
# Description: Wee1 kinase was assayed using a time-resolved fluorescence equilibrium binding assay monitoring displacement of a rapidly reversible Oregon Green-labeled ATP-competitive kinase probe (N-(2-(2-(2-(4-(4-(5-chloro-4-(2-(1-hydroxycyclobutyl)thiazol-5-yl)-1H-pyrrolo[2,3-b]pyridin-2-yl)phenyl)piperazin-1-yl)ethoxy)ethoxy)ethyl)-2′,7′-difluoro-3′,6′-dihydroxy-3-oxo-3H-spiro[isobenzofuran-1,9′-xanthene]-5-carboxamide) by competitive Wee1 inhibitors.
# Table 1 depicts enzyme inhibition data (Ki) for exemplary compounds.
# T1 sequence (P30291 whole entry): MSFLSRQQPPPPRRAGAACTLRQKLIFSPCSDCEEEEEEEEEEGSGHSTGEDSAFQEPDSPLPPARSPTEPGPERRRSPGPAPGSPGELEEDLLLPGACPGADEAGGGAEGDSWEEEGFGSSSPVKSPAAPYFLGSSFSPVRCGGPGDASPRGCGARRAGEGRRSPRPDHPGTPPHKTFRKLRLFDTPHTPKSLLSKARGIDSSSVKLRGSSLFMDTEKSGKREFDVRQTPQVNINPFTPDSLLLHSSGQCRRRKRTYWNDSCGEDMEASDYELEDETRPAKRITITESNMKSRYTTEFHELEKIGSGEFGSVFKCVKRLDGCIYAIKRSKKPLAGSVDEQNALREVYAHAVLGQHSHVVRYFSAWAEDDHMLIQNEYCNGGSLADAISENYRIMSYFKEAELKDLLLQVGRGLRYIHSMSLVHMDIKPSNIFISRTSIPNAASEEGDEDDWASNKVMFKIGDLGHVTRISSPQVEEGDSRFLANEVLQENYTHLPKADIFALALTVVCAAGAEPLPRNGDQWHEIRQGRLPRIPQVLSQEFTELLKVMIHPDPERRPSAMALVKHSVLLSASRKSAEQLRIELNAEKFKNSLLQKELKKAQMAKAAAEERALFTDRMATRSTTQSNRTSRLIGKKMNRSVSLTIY
row,SMILES,Ki
1,"COc1cc(Nc2ncc3c(=O)n(-c4ccccc4Cl)c4nccn4c3n2)ccc1N1CCN(C)CC1 [Example 65, 6-(2-chlorophenyl)-2-{[3-methoxy-4-(4-methylpiperazin-1-yl)phenyl]amino}imidazo[1,2-a]pyrimido[5,4-e]pyrimidin-5(6H)-one]",< 0.01 µM
2,"COc1cc(Nc2ncc3c(=O)n(-c4ccccc4Cl)c4nccn4c3n2)ccc1N1CCN(C(C)C)CC1 [Example 66, 6-(2-chlorophenyl)-2-({3-methoxy-4-[4-(propan-2-yl)piperazin-1-yl]phenyl}amino)imidazo[1,2-a]pyrimido[5,4-e]pyrimidin-5(6H)-one]",< 0.01 µM
3,"COc1cc(Nc2ncc3c(=O)n(-c4ccccc4Cl)c4nccn4c3n2)ccc1OCCN1CCN(C)CC1 [Example 67, 6-(2-chlorophenyl)-2-({3-methoxy-4-[2-(4-methylpiperazin-1-yl)ethoxy]phenyl}amino)imidazo[1,2-a]pyrimido[5,4-e]pyrimidin-5(6H)-one]",< 0.01 µM
4,"O=c1c2cnc(Nc3ccccc3)nc2n2ccnc2n1-c1cccc(O)c1 [Example 68, 6-(3-hydroxyphenyl)-2-(phenylamino)imidazo[1,2-a]pyrimido[5,4-e]pyrimidin-5(6H)-one]",0.01 to 0.1 µM
5,"CN1Cc2cc(Nc3ncc4c(=O)n(-c5c(Cl)cccc5Cl)c5nccn5c4n3)ccc2C2(CC2)C1 [Example 73, 6-(2,6-dichlorophenyl)-2-[(2′-methyl-2′,3′-dihydro-1′H-spiro[cyclopropane-1,4′-isoquinolin]-7′-yl)amino]imidazo[1,2-a]pyrimido[5,4-e]pyrimidin-5(6H)-one]",< 0.01 µM
6,"Cc1cc(Nc2ncc3c(=O)n(-c4c(Cl)cccc4Cl)c4nccn4c3n2)ccc1N1CCCN(C)CC1 [Example 74, 6-(2,6-dichlorophenyl)-2-{[3-methyl-4-(4-methyl-1,4-diazepan-1-yl)phenyl]amino}imidazo[1,2-a]pyrimido[5,4-e]pyrimidin-5(6H)-one]",< 0.01 µM
7,"O=c1c2cnc(Nc3ccc(N4CCNCC4)c(C(F)(F)F)c3)nc2n2ccnc2n1-c1ccccc1Cl [Example 75, 6-(2-chlorophenyl)-2-{[4-(piperazin-1-yl)-3-(trifluoromethyl)phenyl]amino}imidazo[1,2-a]pyrimido[5,4-e]pyrimidin-5(6H)-one]",< 0.01 µM
8,"Cc1cc(OCCCN2CCN(C)CC2)ccc1Nc1ncc2c(=O)n(-c3ccccc3Cl)c3nccn3c2n1 [Example 77, 6-(2-chlorophenyl)-2-({2-methyl-4-[3-(4-methylpiperazin-1-yl)propoxy]phenyl}amino)imidazo[1,2-a]pyrimido[5,4-e]pyrimidin-5(6H)-one]",> 0.1 µM
9,"CN1CCN(CCCOc2cccc(Nc3ncc4c(=O)n(-c5ccccc5Cl)c5nccn5c4n3)c2)CC1 [Example 82, 6-(2-chlorophenyl)-2-({3-[3-(4-methylpiperazin-1-yl)propoxy]phenyl}amino)imidazo[1,2-a]pyrimido[5,4-e]pyrimidin-5(6H)-one]",0.01 to 0.1 µM
10,"O=c1c2cnc(Nc3cccc(OCCCN4CCCCC4)c3)nc2n2ccnc2n1-c1ccccc1Cl [Example 83, 6-(2-chlorophenyl)-2-({3-[3-(piperidin-1-yl)propoxy]phenyl}amino)imidazo[1,2-a]pyrimido[5,4-e]pyrimidin-5(6H)-one]",0.01 to 0.1 µM
11,"O=c1c2cnc(Nc3ccccc3)nc2n2ccnc2n1-c1c(Cl)cccc1Cl [Example 84, 6-(2,6-dichlorophenyl)-2-(phenylamino)imidazo[1,2-a]pyrimido[5,4-e]pyrimidin-5(6H)-one]",< 0.01 µM
12,"COc1cc(Nc2ncc3c(=O)n(-c4ccccc4Cl)c4nccn4c3n2)ccc1OCCNC(C)C [Example 85, 6-(2-chlorophenyl)-2-({3-methoxy-4-[2-(propan-2-ylamino)ethoxy]phenyl}amino)imidazo[1,2-a]pyrimido[5,4-e]pyrimidin-5(6H)-one]",< 0.01 µM
13,"CC(C)NCCOc1ccc(Nc2ncc3c(=O)n(-c4ccccc4Cl)c4nccn4c3n2)cc1Cl [Example 86, 6-(2-chlorophenyl)-2-({3-chloro-4-[2-(propan-2-ylamino)ethoxy]phenyl}amino)imidazo[1,2-a]pyrimido[5,4-e]pyrimidin-5(6H)-one]",< 0.01 µM
14,"O=c1c2cnc(Nc3ccc4c(c3)CNCC43CC3)nc2n2ccnc2n1-c1ccccc1Cl [Example 90, 6-(2-chlorophenyl)-2-(2′,3′-dihydro-1′H-spiro[cyclopropane-1,4′-isoquinolin]-7′-ylamino)imidazo[1,2-a]pyrimido[5,4-e]pyrimidin-5(6H)-one]",< 0.01 µM
15,"CC(=O)N1Cc2cc(Nc3ncc4c(=O)n(-c5ccccc5Cl)c5nccn5c4n3)ccc2C2(CC2)C1 [Example 91, 2-[(2′-acetyl-2′,3′-dihydro-1′H-spiro[cyclopropane-1,4′-isoquinolin]-7′-yl)amino]-6-(2-chlorophenyl)imidazo[1,2-a]pyrimido[5,4-e]pyrimidin-5(6H)-one]",< 0.01 µM
16,"CN1CCCc2cc(Nc3ncc4c(=O)n(-c5ccccc5Cl)c5nccn5c4n3)ccc21 [Example 92, 6-(2-chlorophenyl)-2-[(1-methyl-1,2,3,4-tetrahydroquinolin-6-yl)amino]imidazo[1,2-a]pyrimido[5,4-e]pyrimidin-5(6H)-one]",< 0.01 µM
17,"CN(C)CCN1CCc2cc(Nc3ncc4c(=O)n(-c5ccccc5Cl)c5nccn5c4n3)ccc21 [Example 93, 6-(2-chlorophenyl)-2-({1-[2-(dimethylamino)ethyl]-2,3-dihydro-1H-indol-5-yl}amino)imidazo[1,2-a]pyrimido[5,4-e]pyrimidin-5(6H)-one]",< 0.01 µM
18,"CN(C)C1Cc2ccc(Nc3ncc4c(=O)n(-c5ccccc5Cl)c5nccn5c4n3)cc2C1 (centres unmarked) [Example 94, 6-(2-chlorophenyl)-2-{[2-(dimethylamino)-2,3-dihydro-1H-inden-5-yl]amino}imidazo[1,2-a]pyrimido[5,4-e]pyrimidin-5(6H)-one]",< 0.01 µM
19,"Cc1cc(Nc2ncc3c(=O)n(-c4c(F)cccc4Cl)c4nccn4c3n2)ccc1N1CCCN(C)CC1 [Example 96, 6-(2-chloro-6-fluorophenyl)-2-{[3-methyl-4-(4-methyl-1,4-diazepan-1-yl)phenyl]amino}imidazo[1,2-a]pyrimido[5,4-e]pyrimidin-5(6H)-one]",< 0.01 µM

# Results, then the compound that gave them:
row,Ki,SMILES
1,< 0.01 µM,"COCCN1CCN(c2ccc(Nc3ncc4c(=O)n(-c5ccccc5Cl)c5nccn5c4n3)cc2)CC1 [Example 64, 6-(2-chlorophenyl)-2-({4-[4-(2-methoxyethyl)piperazin-1-yl]phenyl}amino)imidazo[1,2-a]pyrimido[5,4-e]pyrimidin-5(6H)-one]"
2,0.01 to 0.1 µM,"Cc1ccc(Nc2ncc3c(=O)n(-c4ccccc4Cl)c4nccn4c3n2)cc1 [Example 69, 6-(2-chlorophenyl)-2-[(4-methylphenyl)amino]imidazo[1,2-a]pyrimido[5,4-e]pyrimidin-5(6H)-one]"
3,< 0.01 µM,"O=c1c2cnc(Nc3ccc(C4CCCCN4)cc3)nc2n2ccnc2n1-c1ccccc1Cl (centres unmarked) [Example 70, 6-(2-chlorophenyl)-2-{[4-(piperidin-2-yl)phenyl]amino}imidazo[1,2-a]pyrimido[5,4-e]pyrimidin-5(6H)-one]"
4,< 0.01 µM,"O=c1c2cnc(Nc3ccc(C4CCCN4)cc3)nc2n2ccnc2n1-c1ccccc1Cl (centres unmarked) [Example 71, 6-(2-chlorophenyl)-2-{[4-(pyrrolidin-2-yl)phenyl]amino}imidazo[1,2-a]pyrimido[5,4-e]pyrimidin-5(6H)-one]"
5,< 0.01 µM,"O=c1c2cnc(Nc3ccc(C4CCNC4)cc3)nc2n2ccnc2n1-c1ccccc1Cl (centres unmarked) [Example 72, 6-(2-chlorophenyl)-2-{[4-(pyrrolidin-3-yl)phenyl]amino}imidazo[1,2-a]pyrimido[5,4-e]pyrimidin-5(6H)-one]"
6,< 0.01 µM,"O=c1c2cnc(Nc3ccc(OC[C@@H]4CCCN4)cc3)nc2n2ccnc2n1-c1ccccc1Cl [Example 76, 6-(2-chlorophenyl)-2-({4-[(2S)-pyrrolidin-2-ylmethoxy]phenyl}amino)imidazo[1,2-a]pyrimido[5,4-e]pyrimidin-5(6H)-one]"
7,< 0.01 µM,"O=c1c2cnc(Nc3ccc(CN4CCOCC4)cc3)nc2n2ccnc2n1-c1ccccc1Cl [Example 78, 6-(2-chlorophenyl)-2-{[4-(morpholin-4-ylmethyl)phenyl]amino}imidazo[1,2-a]pyrimido[5,4-e]pyrimidin-5(6H)-one]"
8,< 0.01 µM,"O=c1c2cnc(Nc3ccc(Cn4ccnc4)cc3)nc2n2ccnc2n1-c1ccccc1Cl [Example 79, 6-(2-chlorophenyl)-2-{[4-(1H-imidazol-1-ylmethyl)phenyl]amino}imidazo[1,2-a]pyrimido[5,4-e]pyrimidin-5(6H)-one]"
9,0.01 to 0.1 µM,"O=c1c2cnc(Nc3ccc(-n4ccnc4)cc3)nc2n2ccnc2n1-c1ccccc1Cl [Example 80, 6-(2-chlorophenyl)-2-{[4-(1H-imidazol-1-yl)phenyl]amino}imidazo[1,2-a]pyrimido[5,4-e]pyrimidin-5(6H)-one]"
10,< 0.01 µM,"O=c1c2cnc(Nc3ccc(N4CCNCC4)nc3)nc2n2ccnc2n1-c1ccccc1Cl [Example 81, 6-(2-chlorophenyl)-2-{[6-(piperazin-1-yl)pyridin-3-yl]amino}imidazo[1,2-a]pyrimido[5,4-e]pyrimidin-5(6H)-one]"
11,0.01 to 0.1 µM,"O=c1c2cnc(Nc3ccc(CO)cc3)nc2n2ccnc2n1-c1ccccc1Cl [Example 87, 6-(2-chlorophenyl)-2-{[4-(hydroxymethyl)phenyl]amino}imidazo[1,2-a]pyrimido[5,4-e]pyrimidin-5(6H)-one]"
12,< 0.01 µM,"O=c1c2cnc(Nc3ccc(Cn4cccn4)cc3)nc2n2ccnc2n1-c1ccccc1Cl [Example 88, 6-(2-chlorophenyl)-2-{[4-(1H-pyrazol-1-ylmethyl)phenyl]amino}imidazo[1,2-a]pyrimido[5,4-e]pyrimidin-5(6H)-one]"
13,0.01 to 0.1 µM,"O=c1c2cnc(Nc3ccc(-n4cccn4)cc3)nc2n2ccnc2n1-c1ccccc1Cl [Example 89, 6-(2-chlorophenyl)-2-{[4-(1H-pyrazol-1-yl)phenyl]amino}imidazo[1,2-a]pyrimido[5,4-e]pyrimidin-5(6H)-one]"
